≈ marks a conversion by molar mass, not a printed value.

Holding throughout (assay): microbe, parasite or virus in culture
Test [1] has as its system strains of TB that are resistant to Kanamycin. It is filed as cell-based. The following applies: Mycobacterium tuberculosis.
Test [2] has as its system Mycobacterium tuberculosis (replicating TB). Format: cell-based.
In test [3] the test system is strains of TB that are resistant to Isoniazid. It is filed as cell-based. The following applies: Mycobacterium tuberculosis.
Test [4] has as its system strains of TB that are resistant to Rifampin. It is filed as cell-based. The following applies: Mycobacterium tuberculosis.
For a further test, the system named is non-replicating TB. It is filed as cell-based, Mycobacterium tuberculosis.

Consider `O=C1C=Cc2nocc2/C1=C1/Nc2ccccc2C1=O` [Example P1, 4-(3-oxoindolin-2-ylidene)benzo[c]isoxazol-5(4H)-one], for which the MIC in test [1] stood at 0.148 µg/mL (≈ 0.56 µM); in test [3], 0.138 µg/mL (≈ 0.522 µM); in test [4], 0.239 µg/mL (≈ 0.904 µM). The “MIC MABA” value in test [2] was 0.15 µg/mL (≈ 0.568 µM). Also, the “MIC LORA” value in the test on non-replicating TB was 1.833 µg/mL (≈ 6.94 µM).

Values taken from US8975015B2, “Antimicrobial compounds” (priority 2009, dated 2015).
